Measurements as given in the supplement of paper PMC4862054.

Assays:
Settings in all cases: incubation time: 72 h
MDA-MB-231 [1] = test: drug sensitivity score (DSS), CellTiter-Blue viability (DSS (AUC-based score)); higher = stronger viability inhibition; extreme values may be limits of the assay
Outline: (§1)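 Into 384-well plates carrying compound in a 5- or 9-concentration series went 20 µl of breast cancer cell suspension, followed by 72 h of incubation. Adding 2.5 µl CellTiter-Blue per well and incubating 2 h at 37 °C preceded fluorescence measurement at 560/590 nm. After normalisation of each plate to 0.1 % DMSO and a positive kill control, dose-response curves were fitted and the area beneath them taken as the drug sensitivity score.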

MDA-MB-468 [2] = test: as above
Outline: as §1

BT-474 [3] = test: as above
Outline: as §1

SK-BR-3 [4] = test: as above
Outline: as §1

HCC1143 = test: normalised viability (% of control), CellTiter-Blue; higher = more viable cells (about 100 = DMSO control)
Outline: (§2)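 The reported quantity is normalised viability at a single listed concentration of the series. Compound in 5 µl medium was pre-dispensed into 384-well plates and 20 µl of breast cancer cell suspension was added for 72 h. A 2 h, 37 °C CellTiter-Blue step (2.5 µl) preceded fluorescence reading at 560/590 nm, and plates were normalised to vehicle (100) and a positive kill control (0).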

HCC1937 = test: as above
Outline: as §2

MDA-MB-231 [5] = test: as above
Outline: as §2

CAL-85-1 = test: as above
Outline: as §2

MFM-223 = test: as above
Outline: as §2

DU-4475 = test: as above
Outline: as §2

HCC1599 = test: as above
Outline: as §2

BT-549 = test: as above
Outline: as §2

MDA-MB-436 = test: as above
Outline: as §2

HDQ-P1 = test: as above
Outline: as §2

CAL-51 = test: as above
Outline: as §2

MDA-MB-468 [6] = test: as above
Outline: as §2

BT-474 [7] = test: as above
Outline: as §2

CAL-148 = test: as above
Outline: as §2

SK-BR-3 [8] = test: as above
Outline: as §2

Hs578T = test: as above
Outline: as §2

CAL-120 = test: as above
Outline: as §2

MDA-MB-453 = test: as above
Outline: as §2

CN[C@@H]1C[C@H]2O[C@@](C)([C@@H]1OC)n1c3ccccc3c3c4c(c5c6ccccc6n2c5c31)C(=O)N[C@H]4O [UCN-01]
Settings | drug sensitivity score
BT-474 [3] | 12.2
MDA-MB-231 [1] | 24.5
MDA-MB-468 [2] | 22.4
SK-BR-3 [4] | 23

normalised viability [%]
Settings | 3 nM | 10 nM | 30 nM | 100 nM | 1000 nM | 10000 nM
BT-474 [7] | – | 108 | – | – | 44.2 | 2.62
BT-549 | – | 91.4 | – | – | 11.8 | 0.77
CAL-51 | 99.7 | – | 87.2 | 62.6 | – | –
CAL-85-1 | 87.4 | – | 73.6 | 60.4 | – | –
CAL-120 | – | 72.8 | – | – | 17.7 | 9.93
CAL-148 | 92.2 | – | 105 | 106 | – | –
DU-4475 | 109 | – | 81.5 | 78.3 | – | –
HCC1143 | – | 77.7 | – | – | 20.6 | 20.4
HCC1599 | – | 81.1 | – | – | 48.3 | 21.2
HCC1937 | – | 71.7 | – | – | 25.6 | 7.84
HDQ-P1 | 82.2 | – | 66.8 | 39.6 | – | –
Hs578T | – | 88.3 | – | – | 7.74 | 0.41
MDA-MB-231 [5] | – | 93.7 | – | – | 17.2 | 0.84
MDA-MB-436 | – | 110 | – | – | 47.8 | 12.8
MDA-MB-453 | 98 | – | 86.8 | 65 | – | –
MDA-MB-468 [6] | – | 126 | – | – | 7.27 | 6.64
MFM-223 | – | 103 | – | – | 42.1 | 13.5
SK-BR-3 [8] | – | 101 | – | – | 16.5 | 3.68
